# Test system: Min6 cell
# Experiment: Insulin secretion response of beta cell line to formula I compounds (insulin ELISA)
# Format: cell-based
# Details: rank according to % increase versus control at most effective dose
# Description: The secretory responses of beta cell lines to glucose were tested as described in Merglen et al. Endocrinology, (2004) 145(2):667-78.
# Briefly, after incubation with compounds from formula I or control vehicle, cells were maintained for 2 hours in glucose-free culture medium. The cells were then washed twice and preincubated for 30 minutes at 37° C. in glucose-free Krebs-Ringer bicarbonate HEPES buffer (KRBH: 135 mM NaCl, 3.6 mM KCl, 5 mM NaHCO3, 0.5 mM NaH2PO4, 0.5 mM MgCl2, 1.5 mM CaCl2, and 10 mM HEPES, pH 7.4). BSA (0.1%) was added as an insulin carrier. Cells were subsequently washed with glucose-free KRBH and then incubated for 30 minutes at 37° C. in KRBH containing different concentrations of glucose. The reaction was stopped by placing the plates on ice; supernatants were collected to determine insulin secretion and cells were used for intracellular insulin content following acid-ethanol extraction. Insulin was measured by ELISA (Linco) according to the manufacturer's instructions.
row,Compound,Insulin secretion (Min6 cell) Range 1 to 5
1,"5-[3-(allyloxy)-2-hydroxypropyl]-9-ethyl-6,7,9,10-tetrahydro[1,3]dioxolo[4,5-i][1,5]benzodiazocin-8(5H)-one [Compound 164]",1 (1: 90-110% of control)
2,"5-benzyl-1-(isoxazole-5-carbonyl)-2,3,5,6-tetrahydrobenzo[b][1,5]diazocin-4(1H)-one [Compound 157]",1 (1: 90-110% of control)
3,"9-ethyl-5-(2-hydroxy-3-phenylpropyl)-6,7,9,10-tetrahydro[1,3]dioxolo[4,5-i][1,5]benzodiazocin-8(5H)-one [Compound 165]",1 (1: 90-110% of control)
4,"COc1ccc2c(c1)CN(C1CC1)C(=O)CCN2 [Compound 1, 5-cyclopropyl-8-methoxy-2,3,5,6-tetrahydrobenzo[b][1,5]diazocin-4(1H)-one]",2 (2: 110-120% of control)
5,"COc1ccc2c(c1)CN(C1CC1)C(=O)CCN2CC(O)COc1ccccc1 (stereo not drawn) [Compound 2, 5-cyclopropyl-1-(2-hydroxy-3-phenoxypropyl)-8-methoxy-2,3,5,6-tetrahydrobenzo[b][1,5]diazocin-4(1H)-one]",3 (3: 120-140% of control)
6,"COc1ccc2c(c1)CN(C1CC1)C(=O)CCN2CCc1ccc(Cl)cc1 [Compound 3, 1-(4-chlorophenethyl)-5-cyclopropyl-8-methoxy-2,3,5,6-tetrahydrobenzo[b][1,5]diazocin-4(1H)-one]",1 (1: 90-110% of control)
7,"COc1ccc2c(c1)CN(C1CC1)C(=O)CCN2C(=O)c1cc(C)on1 [Compound 4, 5-cyclopropyl-8-methoxy-1-(5-methylisoxazole-3-carbonyl)-2,3,5,6-tetrahydrobenzo[b][1,5]diazocin-4(1H)-one]",2 (2: 110-120% of control)
8,"COc1ccc2c(c1)CN(C1CC1)C(=O)CCN2CC(=O)c1ccc(F)cc1 [Compound 5, 5-cyclopropyl-1-(2-(4-fluorophenyl)-2-oxoethyl)-8-methoxy-2,3,5,6-tetrahydrobenzo[b][1,5]diazocin-4(1H)-one]",3 (3: 120-140% of control)
9,"COc1ccc2c(c1)CN(C1CC1)C(=O)CCN2CC(O)c1ccc(F)cc1 (stereo not drawn) [Compound 6, 5-cyclopropyl-1-(2-(4-fluorophenyl)-2-hydroxyethyl)-8-methoxy-2,3,5,6-tetrahydrobenzo[b][1,5]diazocin-4(1H)-one]",3 (3: 120-140% of control)
10,"O=C1CCNc2ccc(Br)cc2CN1C1CC1 [Compound 7, 8-bromo-5-cyclopropyl-2,3,5,6-tetrahydrobenzo[b][1,5]diazocin-4(1H)-one]",1 (1: 90-110% of control)
11,"O=C1CCNc2ccc(F)cc2CN1C1CC1 [Compound 8, 5-cyclopropyl-8-fluoro-2,3,5,6-tetrahydrobenzo[b][1,5]diazocin-4(1H)-one]",3 (3: 120-140% of control)
12,"O=C1CCNc2ncccc2CN1C1CC1 [Compound 9, 5-cyclopropyl-2,3,5,6-tetrahydropyrido[2,3-b][1,5]diazocin-4(1H)-one]",2 (2: 110-120% of control)
13,"O=C1CCNc2ccc(F)cc2CN1 [Compound 10, 8-fluoro-2,3,5,6-tetrahydrobenzo[b][1,5]diazocin-4(1H)-one]",4 (4: 140-170% of control)
14,"COc1ccc2c(c1)CN(C1CC1)C(=O)CCN2CC(=O)c1ccccc1 [Compound 11, 5-cyclopropyl-8-methoxy-1-(2-oxo-2-phenylethyl)-2,3,5,6-tetrahydrobenzo[b][1,5]diazocin-4(1H)-one]",1 (1: 90-110% of control)
15,"COc1ccc2c(c1)CN(C1CC1)C(=O)CCN2CC(=O)c1cc(OC)ccc1OC [Compound 12, 5-cyclopropyl-1-(2-(2,5-dimethoxyphenyl)-2-oxoethyl)-8-methoxy-2,3,5,6-tetrahydrobenzo[b][1,5]diazocin-4(1H)-one]",1 (1: 90-110% of control)
16,"COc1ccc2c(c1)CN(C1CC1)C(=O)CCN2CC(=O)c1ccccc1OC [Compound 13, 5-cyclopropyl-8-methoxy-1-(2-(2-methoxyphenyl)-2-oxoethyl)-2,3,5,6-tetrahydrobenzo[b][1,5]diazocin-4(1H)-one]",1 (1: 90-110% of control)
17,"COc1ccc2c(c1)CN(C1CC1)C(=O)CCN2CC(=O)c1ccc(Cl)cc1 [Compound 14, 1-(2-(4-chlorophenyl)-2-oxoethyl)-5-cyclopropyl-8-methoxy-2,3,5,6-tetrahydrobenzo[b][1,5]diazocin-4(1H)-one]",3 (3: 120-140% of control)
18,"COc1ccc2c(c1)CN(C1CC1)C(=O)CCN2CC(=O)c1ccc2c(c1)OCCO2 [Compound 15, 5-cyclopropyl-1-(2-(2,3-dihydrobenzo[b][1,4]dioxin-6-yl)-2-oxoethyl)-8-methoxy-2,3,5,6-tetrahydrobenzo[b][1,5]diazocin-4(1H)-one]",3 (3: 120-140% of control)
19,"COc1ccc2c(c1)CN(C1CC1)C(=O)CCN2CC(=O)c1ccc(N2CCCC2)cc1 [Compound 16, 5-cyclopropyl-8-methoxy-1-(2-oxo-2-(4-(pyrrolidin-1-yl)phenyl)ethyl)-2,3,5,6-tetrahydrobenzo[b][1,5]diazocin-4(1H)-one]",4 (4: 140-170% of control)
20,"COc1ccc2c(c1)CN(C1CC1)C(=O)CCN2CC(O)c1ccccc1 (stereo not drawn) [Compound 17, 5-cyclopropyl-1-(2-hydroxy-2-phenylethyl)-8-methoxy-2,3,5,6-tetrahydrobenzo[b][1,5]diazocin-4(1H)-one]",2 (2: 110-120% of control)
21,"COc1ccc2c(c1)CN(C1CC1)C(=O)CCN2C[C@@H](O)COCc1ccccc1 [Compound 18, (R)-1-(3-(benzyloxy)-2-hydroxypropyl)-5-cyclopropyl-8-methoxy-2,3,5,6-tetrahydrobenzo[b][1,5]diazocin-4(1H)-one]",2 (2: 110-120% of control)
22,"O=C1CCN(C[C@@H](O)COCc2ccccc2)c2ccc(F)cc2CN1C1CC1 [Compound 19, (R)-1-(3-(benzyloxy)-2-hydroxypropyl)-5-cyclopropyl-8-fluoro-2,3,5,6-tetrahydrobenzo[b][1,5]diazocin-4(1H)-one]",1 (1: 90-110% of control)
23,"COc1cccc(C(=O)CN2CCC(=O)N(C3CC3)Cc3cc(OC)ccc32)c1 [Compound 20, 5-cyclopropyl-8-methoxy-1-(2-(3-methoxyphenyl)-2-oxoethyl)-2,3,5,6-tetrahydrobenzo[b][1,5]diazocin-4(1H)-one]",1 (1: 90-110% of control)
24,"COc1ccc(C(=O)CN2CCC(=O)N(C3CC3)Cc3cc(OC)ccc32)cc1 [Compound 21, 5-cyclopropyl-8-methoxy-1-(2-(4-methoxyphenyl)-2-oxoethyl)-2,3,5,6-tetrahydrobenzo[b][1,5]diazocin-4(1H)-one]",2 (2: 110-120% of control)
25,"COc1ccc2c(c1)CN(C1CC1)C(=O)CCN2CC(=O)c1cccc(F)c1 [Compound 22, 5-cyclopropyl-1-(2-(3-fluorophenyl)-2-oxoethyl)-8-methoxy-2,3,5,6-tetrahydrobenzo[b][1,5]diazocin-4(1H)-one]",2 (2: 110-120% of control)
26,"COc1ccc2c(c1)CN(C1CC1)C(=O)CCN2CC(=O)c1ccc(OC(F)(F)F)cc1 [Compound 23, 5-cyclopropyl-8-methoxy-1-(2-oxo-2-(4-(trifluoromethoxy)phenyl)ethyl)-2,3,5,6-tetrahydrobenzo[b][1,5]diazocin-4(1H)-one]",1 (1: 90-110% of control)
27,"COc1ccc2c(c1)CN(C1CC1)C(=O)CCN2CC(=O)c1ccc(F)c(F)c1 [Compound 24, 5-cyclopropyl-1-(2-(3,4-difluorophenyl)-2-oxoethyl)-8-methoxy-2,3,5,6-tetrahydrobenzo[b][1,5]diazocin-4(1H)-one]",2 (2: 110-120% of control)
28,"COc1ccc2c(c1)CN(C1CC1)C(=O)CCN2CC(O)c1cc(OC)ccc1OC (stereo not drawn) [Compound 25, 5-cyclopropyl-1-(2-(2,5-dimethoxyphenyl)-2-hydroxyethyl)-8-methoxy-2,3,5,6-tetrahydrobenzo[b][1,5]diazocin-4(1H)-one]",2 (2: 110-120% of control)
29,"COc1ccc2c(c1)CN(C1CC1)C(=O)CCN2CC(O)c1ccccc1OC (stereo not drawn) [Compound 26, 5-cyclopropyl-1-(2-hydroxy-2-(2-methoxyphenyl)ethyl)-8-methoxy-2,3,5,6-tetrahydrobenzo[b][1,5]diazocin-4(1H)-one]",2 (2: 110-120% of control)
30,"COc1ccc2c(c1)CN(C1CC1)C(=O)CCN2CC(O)c1ccc(Cl)cc1 (stereo not drawn) [Compound 27, 1-(2-(4-chlorophenyl)-2-hydroxyethyl)-5-cyclopropyl-8-methoxy-2,3,5,6-tetrahydrobenzo[b][1,5]diazocin-4(1H)-one]",4 (4: 140-170% of control)
